Several values for one entry are separate records, joined by “and”; a condition that tells them apart may be missing. Equal entries are not always repeated.
Test system: 598228-144-R-J1-PDC complex spheroids, viability
Test: Anticancer human tumor 598228-144-R-J1-PDC patient-derived serous endometrial adenocarcinoma cell line growth inhibition [CLK]
Details: for viability, T/C: stronger effect = lower value; active = viability on the fitted dose curve at most 10% of control; inactive = the rest
Outline: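 Patient-derived tumor cells grown as complex spheroids with HUVEC endothelial cells and mesenchymal stem cells, treated with drug combinations. Concentrations descend in half-log steps from near clinical Cmax, or from 10 microM if Cmax unknown.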

[1] = curve of first compound, second compound 0.0316 µM
[2] = curve of first compound, second compound 0.1 µM
[3] = curve of first compound, second compound 0.316 µM
[4] = curve of first compound, second compound 1 µM
[5] = curve of first compound, second compound 3.16 µM
[6] = curve of first compound, second compound 10 µM
[7] = second compound 0.0316 µM, first compound 0.0316 µM
[8] = second compound 0.0316 µM, first compound 0.1 µM
[9] = second compound 0.0316 µM, first compound 0.316 µM
[10] = second compound 0.0316 µM, first compound 1 µM
[11] = second compound 0.1 µM, first compound 0.0316 µM
[12] = second compound 0.1 µM, first compound 0.1 µM
[13] = second compound 0.1 µM, first compound 0.316 µM
[14] = second compound 0.1 µM, first compound 1 µM
[15] = second compound 0.316 µM, first compound 0.0316 µM
[16] = second compound 0.316 µM, first compound 0.1 µM
[17] = second compound 0.316 µM, first compound 0.316 µM
[18] = second compound 0.316 µM, first compound 1 µM
[19] = second compound 1 µM, first compound 0.0316 µM
[20] = second compound 1 µM, first compound 0.1 µM
[21] = second compound 1 µM, first compound 0.316 µM
[22] = second compound 1 µM, first compound 1 µM
[23] = second compound 3.16 µM, first compound 0.0316 µM
[24] = second compound 3.16 µM, first compound 0.1 µM
[25] = second compound 3.16 µM, first compound 0.316 µM
[26] = second compound 3.16 µM, first compound 1 µM
[27] = second compound 10 µM, first compound 0.0316 µM
[28] = second compound 10 µM, first compound 0.1 µM
[29] = second compound 10 µM, first compound 0.316 µM
[30] = second compound 10 µM, first compound 1 µM
[31] = second compound 0.0316 µM, first compound 3.16 µM
[32] = second compound 0.0316 µM, first compound 10 µM
[33] = second compound 0.1 µM, first compound 3.16 µM
[34] = second compound 0.1 µM, first compound 10 µM
[35] = second compound 0.316 µM, first compound 3.16 µM
[36] = second compound 0.316 µM, first compound 10 µM
[37] = second compound 1 µM, first compound 3.16 µM
[38] = second compound 1 µM, first compound 10 µM
[39] = second compound 3.16 µM, first compound 3.16 µM
[40] = second compound 3.16 µM, first compound 10 µM
[41] = second compound 10 µM, first compound 3.16 µM
[42] = second compound 10 µM, first compound 10 µM
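Note: spheroids exposed to compounds for seven days before readout.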
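Throughout, for viability, T/C: 100% = DMSO vehicle control wells.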

COc1c(OCCCN2CCOCC2)ccc2c3n(c(=NC(=O)c4cnc(N)nc4)nc12)CCN3 + CNC(=O)c1ccc(Nc2nc(OC3CCCC3)c3c(-c4ccc5nc(C)oc5c4)c[nH]c3n2)c(OC)c1
15.2 nM: IC50 [4]
18.4 nM: IC50 [3]
30.2 nM: IC50 [2]
active: viability, T/C [10] 9.14% | viability, T/C [14] 5.09% | viability, T/C [18] 5.13% | viability, T/C [21] 8.67% | viability, T/C [22] 5.42% | viability, T/C [25] 7.8% | viability, T/C [26] 3.58% | viability, T/C [29] 6.23% | viability, T/C [30] 5.18%
10.6 nM: IC50 [5]
9.94 nM: IC50 [6]
inactive: viability, T/C (second compound 0.0316 µM, first compound 0.00316 µM) 85.7% | viability, T/C (second compound 0.0316 µM, first compound 0.01 µM) 65.5% | viability, T/C [7] 49% | viability, T/C [8] 26.5% | viability, T/C [9] 15.7% | viability, T/C (second compound 0.1 µM, first compound 0.00316 µM) 104% | viability, T/C (second compound 0.1 µM, first compound 0.01 µM) 74.2% | viability, T/C [11] 51.4% | viability, T/C [12] 25.8% | viability, T/C [13] 13.6% | viability, T/C (second compound 0.316 µM, first compound 0.00316 µM) 97.8% | viability, T/C (second compound 0.316 µM, first compound 0.01 µM) 65.4% | viability, T/C [15] 35.7% | viability, T/C [16] 19.6% | viability, T/C [17] 11.3% | viability, T/C (second compound 1 µM, first compound 0.00316 µM) 86.8% | viability, T/C (second compound 1 µM, first compound 0.01 µM) 61.4% | viability, T/C [19] 29.9% | viability, T/C [20] 16.6% | viability, T/C (second compound 3.16 µM, first compound 0.00316 µM) 73.5% | viability, T/C (second compound 3.16 µM, first compound 0.01 µM) 51.5% | viability, T/C [23] 28.4% | viability, T/C [24] 13.9% | viability, T/C (second compound 10 µM, first compound 0.00316 µM) 71.2% | viability, T/C (second compound 10 µM, first compound 0.01 µM) 50.3% | viability, T/C [27] 24.8% | viability, T/C [28] 12.9%
26.1 nM: IC50 [1]

CCN1CCN(Cc2ccc(Nc3ncc(F)c(-c4cc(F)c5nc(C)n(C(C)C)c5c4)n3)nc2)CC1
> 1000 nM: IC50 (curve of compound)
inactive: viability, T/C (compound 0.00316 µM) 99.8% and 91.7% | viability, T/C (compound 0.01 µM) 94.1% and 88% | viability, T/C (compound 0.0316 µM) 92.4% and 109% | viability, T/C (compound 0.1 µM) 99.5% and 96.7% | viability, T/C (compound 0.316 µM) 103% and 93.4% | viability, T/C (compound 1 µM) 92.4% and 82.3%

CC(CO)NC(=O)c1cc(-c2ccc(Cl)cc2)nn(-c2cnn(C)c2)c1=O (stereo not drawn) + CN1CCN(c2cc(C(=O)Nc3cc4cc(-c5cnn(C)c5)ccc4cn3)ccn2)CC1
< 31.6 nM: IC50 [3] | IC50 [4] | IC50 [5] | IC50 [6]
inactive: viability, T/C [7] 129% | viability, T/C [8] 113% | viability, T/C [9] 128% | viability, T/C [10] 120% | viability, T/C [31] 115% | viability, T/C [32] 108% | viability, T/C [11] 130% | viability, T/C [12] 128% | viability, T/C [13] 135% | viability, T/C [14] 125% | viability, T/C [33] 135% | viability, T/C [34] 130% | viability, T/C [15] 21.2% | viability, T/C [16] 17% | viability, T/C [17] 17.9% | viability, T/C [18] 17.5% | viability, T/C [35] 18.3% | viability, T/C [36] 18.2%
> 10000 nM: IC50 [1] | IC50 [2]
active: viability, T/C [19] 2.7% | viability, T/C [20] 2.28% | viability, T/C [21] 1.94% | viability, T/C [22] 1.84% | viability, T/C [37] 2.34% | viability, T/C [38] 1.94% | viability, T/C [23] 2.22% | viability, T/C [24] 2.04% | viability, T/C [25] 1.99% | viability, T/C [26] 2.65% | viability, T/C [39] 2.74% | viability, T/C [40] 2.69% | viability, T/C [27] 1.3% | viability, T/C [28] 1.36% | viability, T/C [29] 2.02% | viability, T/C [30] 1.53% | viability, T/C [41] 3.43% | viability, T/C [42] 2.58%

C=CC(=O)N1CCN(c2nc(=O)n(-c3c(C)ccnc3C(C)C)c3nc(-c4c(O)cccc4F)c(F)cc23)C(C)C1 (stereo not drawn) + CNC(=O)c1ccc(Nc2nc(OC3CCCC3)c3c(-c4ccc5nc(C)oc5c4)c[nH]c3n2)c(OC)c1
> 10000 nM: IC50 [1] | IC50 [2] | IC50 [3] | IC50 [4] | IC50 [5] | IC50 [6]
inactive: viability, T/C [7] 97.9% | viability, T/C [8] 110% | viability, T/C [9] 101% | viability, T/C [10] 123% | viability, T/C [31] 135% | viability, T/C [32] 111% | viability, T/C [11] 100% | viability, T/C [12] 111% | viability, T/C [13] 117% | viability, T/C [14] 114% | viability, T/C [33] 127% | viability, T/C [34] 118% | viability, T/C [15] 120% | viability, T/C [16] 100% | viability, T/C [17] 110% | viability, T/C [18] 127% | viability, T/C [35] 120% | viability, T/C [36] 111% | viability, T/C [19] 102% | viability, T/C [20] 96.7% | viability, T/C [21] 109% | viability, T/C [22] 137% | viability, T/C [37] 117% | viability, T/C [38] 99.3% | viability, T/C [23] 99.8% | viability, T/C [24] 86.1% | viability, T/C [25] 97.5% | viability, T/C [26] 109% | viability, T/C [39] 116% | viability, T/C [40] 85.3% | viability, T/C [27] 87.6% | viability, T/C [28] 88.7% | viability, T/C [29] 96.4% | viability, T/C [30] 104% | viability, T/C [41] 101% | viability, T/C [42] 77.3%

— PubChem BioAssay AID2060614 (Molecular Pharmacology Branch, DTP, NCI, 2025)
